Experimental data taken from publication PMC3633088 (Chemistry & biology, 2013).
Each block holds one molecule with its values, some of them ahead of it.

Assays:
[1] = molecular target: T1, hASNase3, cleaved (active) form, alpha and beta chains (Homo sapiens, UniProt Q7L266); test: asparaginase activity assay; assay type: biochemical; conditions: up to 50 mM; cleaved enzyme
T1 sequence (Q7L266 1-167): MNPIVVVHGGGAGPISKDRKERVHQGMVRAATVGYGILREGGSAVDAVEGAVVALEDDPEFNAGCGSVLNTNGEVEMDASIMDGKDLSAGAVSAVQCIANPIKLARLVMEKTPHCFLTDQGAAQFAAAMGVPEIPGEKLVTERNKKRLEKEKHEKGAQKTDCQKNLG
T1 sequence (Q7L266 168-308): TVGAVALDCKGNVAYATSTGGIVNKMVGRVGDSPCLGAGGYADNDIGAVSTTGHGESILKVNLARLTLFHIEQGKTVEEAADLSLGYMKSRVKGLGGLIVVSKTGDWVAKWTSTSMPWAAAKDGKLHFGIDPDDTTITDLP

[2] = molecular target: T2, hASNase3, uncleaved form (human asparaginase 3; hASRGL1/ALP; CRASH) (Homo sapiens, UniProt Q7L266); test: autocleavage, SDS-PAGE band quantification; assay type: biochemical; conditions: accelerates autoproteolysis; 5 mM glycine, pH 7.5, 25 °C, 42 hours
T2 sequence (Q7L266 1-308): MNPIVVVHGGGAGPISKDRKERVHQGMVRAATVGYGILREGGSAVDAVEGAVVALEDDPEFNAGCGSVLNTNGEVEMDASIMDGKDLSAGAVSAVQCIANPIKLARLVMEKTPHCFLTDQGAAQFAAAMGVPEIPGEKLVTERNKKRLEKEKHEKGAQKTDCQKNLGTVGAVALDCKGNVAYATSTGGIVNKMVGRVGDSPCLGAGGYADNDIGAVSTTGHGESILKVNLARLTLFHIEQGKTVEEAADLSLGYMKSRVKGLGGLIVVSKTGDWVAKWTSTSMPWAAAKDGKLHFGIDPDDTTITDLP

[3] = molecular target: T1, hASNase3, cleaved (active) form, alpha and beta chains; test: X-ray crystal structure, […] Å; assay type: binding; conditions: crystal soaked in 3 M glycine, pH 4.9, <1 minute; substrate site (Arg196, Asp199)
[4] = molecular target: T1, hASNase3, cleaved (active) form, alpha and beta chains; test: asparaginase activity assay; assay type: biochemical; conditions: 10 or 50 mM glycine; cleaved enzyme
[5] = molecular target: T1, hASNase3, cleaved (active) form, alpha and beta chains; test: asparaginase activity assay; assay type: biochemical; conditions: turnover by cleaved enzyme only; data not shown
crystal structure = molecular target: the molecule itself; test: crystal structure
hASNase3 α-chain = molecular target: T3, hASNase3 α-chain (human, UniProt Q7L266 1-167); test: crystal structure
T3 sequence (looked up): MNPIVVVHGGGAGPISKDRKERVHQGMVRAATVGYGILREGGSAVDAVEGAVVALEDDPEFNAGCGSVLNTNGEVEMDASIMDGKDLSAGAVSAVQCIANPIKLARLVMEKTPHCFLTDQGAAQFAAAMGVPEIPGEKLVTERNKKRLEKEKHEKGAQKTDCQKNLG

Molecule: O=CC(=O)O [glyoxylate]
inhibition, concentration-dependent [1]: glycolate, glyoxylate, oxalate, L-aspartate, and serine showed a concentration-dependent effect

Molecule: N[C@@H](CO)C(=O)O [serine]
inhibition, concentration-dependent [1]: glycolate, glyoxylate, oxalate, L-aspartate, and serine showed a concentration-dependent effect

% cleavage at 5 mM [2]: 40%
% reduction of asparaginase activity at 10 or 50 mM [4]: ~ 50%
Molecule: NCC(=O)O [glycine]
X-ray crystal structure, 1.91 Å [3]: In this post-cleavage state of hASNase3, glycine bound at the active site

Molecule: O=C(O)C(=O)O [oxalate]
inhibition, concentration-dependent [1]: glycolate, glyoxylate, oxalate, L-aspartate, and serine showed a concentration-dependent effect

Molecule: NC(=O)C[C@H](N)C(=O)O [asparagine]
asparaginase activity assay [5]: The measured asparaginase activity of hASNase3 was proportional to the amount of cleaved enzyme

Molecule: O=C(O)CO [glycolate]
inhibition, concentration-dependent [1]: glycolate, glyoxylate, oxalate, L-aspartate, and serine showed a concentration-dependent effect

Molecule: N[C@@H](CC(=O)O)C(=O)O [L-aspartate]
inhibition, concentration-dependent [1]: glycolate, glyoxylate, oxalate, L-aspartate, and serine showed a concentration-dependent effect

B1: Human asparaginase 3 (hASNase3), cleaved form (α- and β-chains) (complex)
chain 1: MNPIVVVHGGGAGPISKDRKERVHQGMVRAATVGYGILREGGSAVDAVEGAVVALEDDPEFNAGCGSVLNTNGEVEMDASIMDGKDLSAGAVSAVQCIANPIKLARLVMEKTPHCFLTDQGAAQFAAAMGVPEIPGEKLVTERNKKRLEKEKHEKGAQKTDCQKNLG
chain 2: TVGAVALDCKGNVAYATSTGGIVNKMVGRVGDSPCLGAGGYADNDIGAVSTTGHGESILKVNLARLTLFHIEQGKTVEEAADLSLGYMKSRVKGLGGLIVVSKTGDWVAKWTSTSMPWAAAKDGKLHFGIDPDDTTITDLP
binding result (crystal structure): binds

binding result (hASNase3 α-chain): binds
B2: hASNase3 β-chain (domain or fragment, human, UniProt Q7L266 168-308, looked up)
chain: TVGAVALDCKGNVAYATSTGGIVNKMVGRVGDSPCLGAGGYADNDIGAVSTTGHGESILKVNLARLTLFHIEQGKTVEEAADLSLGYMKSRVKGLGGLIVVSKTGDWVAKWTSTSMPWAAAKDGKLHFGIDPDDTTITDLP
